Assays:
[1] = tested on: human panelists, savory taste; test: Savory taste test with trained human panel (difference from reference); assay type: in vivo; conditions: for Taste Data: cpd concentration at which 12 mM MSG + cpd is as strong as 12 mM MSG + 100 μM IMP: with 12 mM MSG, reference 12 mM MSG + 100 μM IMP; for Taste Data: cpd concentration as strong as 12 mM MSG: compound alone, without MSG
Experimental: General Panelist Selection: Basic screening of sensory taste testers: Potential panelists were tested for their abilities to rank and rate intensities of solutions representing the five basic tastes. Panelists ranked and rated intensity of five different concentrations of each of the five following compounds: sucrose (sweet), sodium chloride (salty), citric acid (sour), caffeine (bitter), and monosodium glutamate (savory). In order to be selected for participation in testing, panelists needed to correctly rank and rate samples for intensity, with a reasonable number of errors.
Preliminary Taste Tests: The panelists selected in the above procedure were deemed qualified for performing Preliminary Taste Testing procedures. The preliminary taste tests are used to evaluate new compounds for intensity of basic tastes and off-tastes. A small group of panelists (n=5) taste approximately 5 concentrations of the compound (range typically between 1-100 μM, in half-log cycles, e.g., 1, 3, 10, 30, and 100 μM) in water and in a solution of 12 mM MSG to evaluate enhancement. Panelists rate the five basic tastes (sweet, salty, sour, bitter, and savory) as well as off-tastes (such as chemical, metallic, sulfur) on a labeled magnitude scale. Samples are served in 10 mL portions at room temperature. The purpose of the test is to determine the highest concentration at which there is no objectionable off-taste, and determine if obvious savory taste or enhancement of savory taste exists at any of the concentrations tested.
Trained Panelist Selection: A trained expert panel was used to further evaluate compounds that had been tested with the preliminary taste test.
Panelists for the trained panel were selected from the larger group of qualifying taste panelists. Panelists were further trained on savory taste by ranking and rating experiments using MSG and IMP combinations. Panelists completed a series of ranking, rating, and difference from reference tests with savory solutions. In ranking and rating experiments, panelists evaluated easy MSG concentrations (0, 6, 18, 36 mM) and more difficult MSG concentrations (3, 6, 12, 18 mM MSG) in water.
Compound testing with Trained Panel: Compounds tested by the trained panel were evaluated in difference from reference experiments. […] Test samples were solutions with varying amounts of MSG, IMP, and the compound. Typically, each session compares the reference sample to numerous test samples. […] Compounds were tested against the reference in samples with and without 12 mM MSG. All samples were presented in 10 ml volumes at room temperature. Two sessions were completed for each compound tested to evaluate panel reproducibility.

[2] = tested on: trained tasters, savory, salt, spice flavors; test: Italian sausage rank-rating intensity taste test; assay type: in vivo, human; conditions: scale 0-10, ten tasters
From the text: Three different dry Italian sausage seasoning mixes were formulated by dry blending the ingredients shown in the Tables below, then rehydrated during the formulation of corresponding sausages. One control sample of seasoning mix (Tables 36-1a, b) contained no MSG, and no compounds of the invention. A second sample of seasoning mix and sausage contained added MSG (Tables 36-2a, b). A third sample of Seasoning mix and corresponding sausage also contained added savory flavor concentrate compositions (prepared as per Example 34) containing (0.1% wt/wt) of compounds 1 and 24 ([…]).
Ten trained tasters were trained to identify the relative intensities of the following taste attributes: salty, savory/meaty, umami, brothiness, bitter, linger and off flavors. A rank-rating intensity test was used to evaluate the Italian Sausagesamples. A rank rating is a difference test to determine whether a sensory difference is perceived between various samples. Samples that were evaluated were the Italian Sausage no MSG, Italian sausage with MSG, Italian sausage with compounds 1 and 24 but no MSG. The panelists evaluated 3 randomized, blind coded samples of one ounce of Italian sausage served at 140° F., and ranked the intensity of savory, salt, spice flavors on a scale of 0-10: 0 being the least intense and 10 being the most intenese, and the scores were averaged for individual category.

[3] = target: T1, hT1R1/hT1R3 umami receptor expressed in an HEK293 cell line (Homo sapiens, UniProt Q7RTX0+Q7RTX1); test: Umami taste enhancement assay (EC50 ratio vs. MSG); assay type: cell-based
T1 construct: expressed in transfected cells; host or cells: HEK293 cell line derivative, clone 1-17, expression induced with mifepristone
T1 sequence (Q7RTX1 21-841): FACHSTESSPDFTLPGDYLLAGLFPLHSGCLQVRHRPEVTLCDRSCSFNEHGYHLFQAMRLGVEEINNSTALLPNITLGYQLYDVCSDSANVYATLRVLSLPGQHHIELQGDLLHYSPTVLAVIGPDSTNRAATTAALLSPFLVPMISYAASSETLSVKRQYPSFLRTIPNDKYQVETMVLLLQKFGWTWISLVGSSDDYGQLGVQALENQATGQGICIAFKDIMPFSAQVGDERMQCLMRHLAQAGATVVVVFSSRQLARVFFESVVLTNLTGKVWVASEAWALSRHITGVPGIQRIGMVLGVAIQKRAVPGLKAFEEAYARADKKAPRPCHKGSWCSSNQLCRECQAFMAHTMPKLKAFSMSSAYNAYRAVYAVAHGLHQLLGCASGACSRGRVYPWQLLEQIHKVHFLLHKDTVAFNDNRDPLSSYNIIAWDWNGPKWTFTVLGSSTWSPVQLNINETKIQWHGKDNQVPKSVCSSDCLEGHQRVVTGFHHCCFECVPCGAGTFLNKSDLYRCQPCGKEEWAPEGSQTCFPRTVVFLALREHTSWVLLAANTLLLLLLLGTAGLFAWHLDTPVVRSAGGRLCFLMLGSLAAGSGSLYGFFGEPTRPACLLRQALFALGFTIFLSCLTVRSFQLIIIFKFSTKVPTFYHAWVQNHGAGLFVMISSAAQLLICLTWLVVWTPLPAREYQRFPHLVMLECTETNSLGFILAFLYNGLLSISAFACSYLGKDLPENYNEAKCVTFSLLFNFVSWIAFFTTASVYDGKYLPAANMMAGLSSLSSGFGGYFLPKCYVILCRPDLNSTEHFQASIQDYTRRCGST
T1 sequence (Q7RTX0 21-852): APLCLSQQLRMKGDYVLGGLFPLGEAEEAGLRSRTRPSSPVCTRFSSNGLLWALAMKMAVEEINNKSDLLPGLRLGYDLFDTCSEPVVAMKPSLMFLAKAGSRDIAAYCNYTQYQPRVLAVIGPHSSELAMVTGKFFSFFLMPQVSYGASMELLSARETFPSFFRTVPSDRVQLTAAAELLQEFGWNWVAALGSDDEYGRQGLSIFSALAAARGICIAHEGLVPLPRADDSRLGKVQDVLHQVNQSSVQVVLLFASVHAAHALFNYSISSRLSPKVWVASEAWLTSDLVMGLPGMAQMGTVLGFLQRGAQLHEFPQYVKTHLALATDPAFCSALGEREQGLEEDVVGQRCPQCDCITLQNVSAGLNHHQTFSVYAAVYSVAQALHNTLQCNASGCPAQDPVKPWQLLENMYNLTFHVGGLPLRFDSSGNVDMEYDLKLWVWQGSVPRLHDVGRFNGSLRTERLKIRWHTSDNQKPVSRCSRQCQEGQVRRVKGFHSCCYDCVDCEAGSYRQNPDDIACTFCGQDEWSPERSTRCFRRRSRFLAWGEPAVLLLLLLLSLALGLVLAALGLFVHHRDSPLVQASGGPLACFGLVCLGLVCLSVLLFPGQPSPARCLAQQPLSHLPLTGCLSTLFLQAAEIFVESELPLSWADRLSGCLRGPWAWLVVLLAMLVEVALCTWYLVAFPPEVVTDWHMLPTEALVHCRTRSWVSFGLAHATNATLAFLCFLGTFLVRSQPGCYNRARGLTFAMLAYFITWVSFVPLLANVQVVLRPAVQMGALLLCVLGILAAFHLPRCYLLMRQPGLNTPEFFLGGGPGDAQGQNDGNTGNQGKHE
From the text: In umami taste enhancement activity assay experiments, which produce an “EC50 ratio” measurement of how effectively the amide compounds of the invention enhance the savory flavorant (typically MSG) already in a test solution. A series of measurements of the dose response is run in solutions comprising MSG alone, then a second dose response is run with MSG in combination with predetermined amounts of a candidate compound of Formula (I) at the same time.
In this assay, increasing concentrations of monosodium glutamate (ranging from 12 μM to 81 mM) were presented, in duplicates, in the presence or absence of a fixed concentration of the test compound. Typical compound concentrations tested were 30 μM, 10 μM, 3 μM, 1 μM, 0.3 μM, 0.1 μM and 0.03 μM. The relative efficacy of compounds of […] at enhancing the receptor was determined by calculating the magnitude of a shift in the EC50 for monosodium glutamate. Enhancement was defined as a ratio (EC50R) corresponding to the EC50 of monosodium glutamate, determined in the absence of the test compound, divided by the EC50 of monosodium glutamate, determined in the presence of the test compound.
Stated alternatively, “EC50 ratio” as compared to MSG is calculated based on the following definitions:
EC50 Ratio vs. MSG=EC50 (MSG)/EC50 (MSG+[Compound]) wherein “[compound]” refers to the concentration of the compound of Formula (I) used to elicit (or enhance or potentiate) the MSG dose response.
It should be noted that the EC50 ratio measured can depend somewhat on the concentration of the compound itself. Preferred savory enhancers would have a high EC50 Ratio vs. MSG at a low concentration of the compound used.

Row | Structure (SMILES) | melting point [°C] | Taste Data: cpd concentration at which 12 mM MSG + cpd is as strong as 12 mM MSG + 100 μM IMP [1] | also measured
1 | COC(=O)[C@@H](CC(C)C)NC(=O)c1cc(OC)nc(OC)c1 [Example 20, (R)-methyl 2-(2,6-dimethoxyisonicotinamido)-4-methylpentanoate] |  | 12 mM MSG + 3 μM cpd as | 
2 | COc1ccc2c(c1)CCC2NC(=O)c1ccc(OC)c(C)c1 (racemic) [Example 22, (R/S)-4-Methoxy-N-(5-methoxy-2,3-dihydro-1H-inden-1-yl)-3-methylbenzamide] |  | 12 mM MSG + 1 μM cpd as | Taste Data: cpd concentration as strong as 12 mM MSG [1]: 1 μM cpd as strong as
3 | COC(=O)[C@@H](CC(C)C)NC(=O)c1cc(C)c(C)o1 [Example 19, (R)-methyl 2-(2,3-dimethylfuran-5-carboxamido)-4-methylpentanoate] |  | 12 mM MSG + 10 μM cpd as | 
4 | N[C@@H](CCC(=O)O)C(=O)[O-].[Na+] [MSG, monosodium glutamate] |  |  | Average score Salt [2]: 5.24; Average score Savory [2]: 6.13; Average score Spice [2]: 5.42
5 | COC(=O)[C@@H](CC(C)C)NC(=O)c1ccc2c(c1)OCO2 [Example 5, (R)-methyl 2-(benzo[d][1,3]dioxole-6-carboxamido)-4-methylpentanoate] |  | 12 mM MSG + 10 μM cpd as | EC50 ratio (enhancement of the effectiveness of monosodium glutamate) ([3]; compound present at 0.1 μM): 4.9
6 | COC(=O)[C@@H](CC(C)C)NC(=O)c1ccc(OC)c(Cl)c1 [Example 16, (R)-methyl 2-(3-chloro-4-methoxybenzamido)-4-methylpentanoate] |  |  | EC50 ratio (enhancement of the effectiveness of monosodium glutamate) ([3]; compound present at 0.01 μM): 13.18
7 | COC[C@@H](CC(C)C)NC(=O)c1ccc(C)c(C)c1 [Example 18, (R)—N-(1-methoxy-4-methylpentan-2-yl)-3,4-dimethylbenzamide] |  | 12 mM MSG + 3 μM cpd as | 
8 | CC1CCCC(NC(=O)c2ccc3c(c2)OCO3)C1C (stereo not drawn) [Example 4] |  |  | EC50 ratio (enhancement of the effectiveness of monosodium glutamate) ([3]; compound present at 1 μM): 8.4
9 | CCCC(CCC)NC(=O)c1ccc2c(c1)OC(C)O2 (stereo not drawn) [Example 9, N-(heptan-4-yl)-2-methylbenzo[d][1,3]dioxole-5-carboxamide] |  |  | EC50 ratio (enhancement of the effectiveness of monosodium glutamate) ([3]; compound present at 0.03 μM): 3.68

Second part, led by results:

Row | melting point [°C] | Structure (SMILES) | Taste Data: cpd concentration at which 12 mM MSG + cpd is as strong as 12 mM MSG + 100 μM IMP [1] | also measured
10 | 152 to 154 | Cc1ccc(CNC(=O)C(=O)NCCc2ccccn2)cc1 [Example 25, N-(4-methyl-benzyl)-N′-(2-pyridin-2-yl-ethyl)-oxalamide] |  | 
11 | 128 to 131 | COc1cc(C)ccc1CNC(=O)C(=O)NCCc1ccccn1 [Example 26, N-(2-methoxy-4-methylbenzyl)-N′-(2-(pyridin-2-yl)ethyl)oxalamide] | 12 mM MSG + 1 μM cpd as | Taste Data: cpd concentration as strong as 12 mM MSG [1]: 1 μM cpd as strong as
12 | 148 to 149 | Cc1ccc(CNC(=O)C(=O)NCCc2ccccn2)c(C)c1 [Example 27, N-(2,4-dimethylbenzyl)-N′-(2-(pyridin-2-yl)ethyl)oxalamide] |  | 
13 | 118 to 119 | COc1ccccc1CNC(=O)C(=O)NCCc1ccccn1 [Example 23, N-(2-Methoxy-benzyl)-N′-(2-pyridin-2-yl-ethyl)-oxalamide] |  | EC50 ratio (enhancement of the effectiveness of monosodium glutamate) ([3]; compound present at 0.3 μM): 18.85
14 | 117 to 118 | CCOc1ccc(CNC(=O)C(=O)NCCc2ccccn2)c(OC)c1 [Example 28, N-(4-ethoxy-2-methoxybenzyl)-N′-(2-(pyridin-2-yl)ethyl)oxalamide] |  | 

From US8318947B2, “Comestible compositions comprising high potency savory flavorants, and processes for producing them” (Senomyx, Inc., priority 2006, dated 2012)
